Molecular target: T1, COX-2 (Homo sapiens, UniProt P35354)
T1 construct: purchased
T1 sequence (P35354 18-604): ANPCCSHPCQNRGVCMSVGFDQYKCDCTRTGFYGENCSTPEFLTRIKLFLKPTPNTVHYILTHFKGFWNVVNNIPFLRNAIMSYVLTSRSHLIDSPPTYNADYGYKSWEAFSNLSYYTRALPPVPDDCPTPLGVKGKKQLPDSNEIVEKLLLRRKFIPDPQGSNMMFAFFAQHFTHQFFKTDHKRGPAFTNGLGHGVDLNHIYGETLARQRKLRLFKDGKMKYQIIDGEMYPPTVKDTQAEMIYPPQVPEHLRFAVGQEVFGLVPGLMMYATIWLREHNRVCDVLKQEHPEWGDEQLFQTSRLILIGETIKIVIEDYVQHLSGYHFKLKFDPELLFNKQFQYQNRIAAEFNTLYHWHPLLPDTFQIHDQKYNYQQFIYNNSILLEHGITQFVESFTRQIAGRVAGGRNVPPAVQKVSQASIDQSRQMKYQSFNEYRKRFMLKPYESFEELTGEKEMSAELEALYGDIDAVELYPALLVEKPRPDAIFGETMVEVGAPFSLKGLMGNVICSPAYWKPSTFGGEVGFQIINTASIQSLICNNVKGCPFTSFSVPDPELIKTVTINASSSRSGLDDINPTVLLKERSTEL
Test: COX-2 enzyme assay with oxygen monitoring system (Example 3)
Assay type: biochemical
Details: for Specific Activity: the higher this number the more selective for COX-2 as opposed to COX-1
Experimental: The present example describes an enzyme assay method using an oxygen monitoring system to monitor the COX inhibitory activity of fruit extracts. In this assay the changes of concentration of dissolved oxygen are constantly monitored by an oxygen electrode in a Dissolved Oxygen Measuring System (Instech, Plymouth Meeting, Pa.). The output is recorded by a linear Recorder (Fisher Scientific, Pittsburgh, Pa.).
Each day a fresh potassium chloride solution (15 g/100 ml distilled water) was made and the electrode was set up according to manufacturers instructions. The chamber is kept at 37° C.
A prostaglandin assay kit was used and the assay set up in a manner similar to that described for the COX-1 assay. Briefly, 50 μl phenol was added to 20 ml 100 mM Tris buffer, warmed to 37° C. for 1 minute (working buffer). To a tube of hematin 0.9 ml of the working buffer was added. 50 μl 0.1NaOH was added to an arachidonic acid vial and vortexed. 0.43 ml water was added and the solution mixed again. Samples of extracts were weighed and dissolved in the working buffer to a final concentration of 0.1 g/ml. Buffer, samples or diluted samples are used in the enzyme assays directly.
The enzyme assay is performed according to the manufacturer's instruction, which should be well known to those of skill in the art. Briefly, 600 μl of working buffer were drawn into the chamber from the overflow outlet with the injection valve close, and the main outlet connected to a syringe in the right orientation. The stir bar was set a speed of 3 k/min. At 1 minute intervals, 5 ul enzyme, 15 ul hematin solution, 6 ul buffer or sample or diluted sample and 8 ul arachidonic acid solution was injected. The oxygen concentration changes were transformed into mV and recorded.

SMILES	Potency compared to Celebrex (COX-2 potency relative to Celebrex)	Specific Activity
O=c1c(O)c(-c2ccc(O)c(O)c2)oc2cc(O)cc(O)c12 [Quercetin standard, Quercetin]	78%	6.3
CC(=O)Oc1ccccc1C(=O)O [Aspirin]		0.5
